In patent US10131702B2, “Glucagon-GLP-1-GIP triple agonist compounds” (priority 2013, dated 2018):
Like-named read-outs stand apart in the source and are kept apart here. Numbered stars: 1 amine (or outer) side, 2 acyl side, 3 side chain; on linkers, the order of the positions; unused ones are H or OH. Square brackets hold non-standard residues; d marks the D form. Side chains are listed from the residue outwards. Peptide text beside a SMILES is read from it. * marks the point of attachment. γGlu = O=C(O)[C@H](CCC(=O)[*:2])N[*:1]; Stearoyl = CCCCCCCCCCCCCCCCCC(=O)*; AEEA = NCCOCCOCC(=O)O; Aib = CC(C)(N)C(=O)O

Columns and labels:
Assay type in all cases: cell-based
[1] = target: T1, human GLP-1 R (Homo sapiens, UniProt P43220); experiment: cAMP induction in HEK293 cells expressing human GLP-1 R (AlphaScreen cAMP kit); settings: average EC50, cAMP, HEK293 cells expressing human GLP-1 R, read-out: GLP1 R (EC50 in nM)
T1 construct: expressed in transfected cells
Method: Briefly, HEK293 cells expressing the human GIP R, GLP-1 R or GCG R (stable cell lines generated through transfection of the cDNA for human GIP R, GLP-1 R or GCG R and selection of stable clones) were seeded at 30,000 cells/well in 96-well microtiter plates coated with 0.01% poly-L-lysine, and grown for 1 day in culture in 200 μl growth medium (DMEM, 10% FCS, Penicillin (100 IU/ml), Streptomycin (100 μg/ml)). On the day of analysis, growth medium was removed and the cells were washed once with 150 μl Tyrode's buffer (Tyrode's Salts (9.6 g/l), 10 mM HEPES, pH 7.4). […] The Assay buffer was removed and cells are lysed in 80 μl Lysis buffer (0.1% w/v BSA, 5 mM HEPES, 0.3% v/v Tween-20) per well. From each well 10 μl of lysed cells were transferred to a 384-well plate and mixed with 15 μl bead-mix (1 Unit/15 μl anti-cAMP Acceptor Beads, 1 Unit/15 μl Donor Beads, and 1 Unit/15 μl Biotinylated cAMP in Assay Buffer). The plates were mixed and incubated in the dark for an hour at room temperature before measuring using an Envision™ plate reader (Perkin-Elmer).
The resulting cAMP curves were plotted as absolute cAMP concentrations (nM) over log (test compound concentration) and analyzed using the curve fitting program XLfit.
Parameters calculated to describe both the potency as well as the agonistic activity of each test compound on the receptors were:
EC50, a concentration resulting in a half-maximal elevation of cAMP levels, reflecting the potency of the test compound.

[2] = target: T2, human GCG R (Homo sapiens, UniProt P47871); experiment: cAMP induction in HEK293 cells expressing human GCG R (AlphaScreen cAMP kit)
T2 construct: expressed in transfected cells

[3] = target: T3, human GIP R (Homo sapiens, UniProt P48546); experiment: cAMP induction in HEK293 cells expressing human GIP R (AlphaScreen cAMP kit)
T3 construct: expressed in transfected cells
T3 sequence (P48546 22-466): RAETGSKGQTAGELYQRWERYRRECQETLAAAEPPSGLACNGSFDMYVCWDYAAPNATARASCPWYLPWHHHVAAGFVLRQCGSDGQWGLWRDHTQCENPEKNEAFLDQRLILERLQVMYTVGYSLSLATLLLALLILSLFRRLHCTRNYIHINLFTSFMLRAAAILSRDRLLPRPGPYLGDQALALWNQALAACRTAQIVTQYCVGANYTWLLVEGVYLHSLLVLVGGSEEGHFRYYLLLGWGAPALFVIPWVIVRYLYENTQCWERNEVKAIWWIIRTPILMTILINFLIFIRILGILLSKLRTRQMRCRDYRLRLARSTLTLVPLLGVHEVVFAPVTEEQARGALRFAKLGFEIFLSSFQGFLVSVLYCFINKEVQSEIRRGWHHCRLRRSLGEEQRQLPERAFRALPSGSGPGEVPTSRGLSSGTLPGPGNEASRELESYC

[4] = Table 2b (most comprehensive data)
[5] = GIP R (EC50 in nM), Table 2b (most comprehensive data), average EC50, cAMP
[6] = Table 2b (most comprehensive data), average EC50, cAMP, read-out: GIP R (EC50 in nM)
[7] = GIP R (EC50 in nM), Table 2, average EC50, cAMP
[8] = Table 2, average EC50, cAMP, HEK293 cells expressing human GCG R, read-out: GCG R (EC50 in nM)
[9] = Table 2, average EC50, cAMP, read-out: GIP R (EC50 in nM)

T2 sequence (P47871 26-477): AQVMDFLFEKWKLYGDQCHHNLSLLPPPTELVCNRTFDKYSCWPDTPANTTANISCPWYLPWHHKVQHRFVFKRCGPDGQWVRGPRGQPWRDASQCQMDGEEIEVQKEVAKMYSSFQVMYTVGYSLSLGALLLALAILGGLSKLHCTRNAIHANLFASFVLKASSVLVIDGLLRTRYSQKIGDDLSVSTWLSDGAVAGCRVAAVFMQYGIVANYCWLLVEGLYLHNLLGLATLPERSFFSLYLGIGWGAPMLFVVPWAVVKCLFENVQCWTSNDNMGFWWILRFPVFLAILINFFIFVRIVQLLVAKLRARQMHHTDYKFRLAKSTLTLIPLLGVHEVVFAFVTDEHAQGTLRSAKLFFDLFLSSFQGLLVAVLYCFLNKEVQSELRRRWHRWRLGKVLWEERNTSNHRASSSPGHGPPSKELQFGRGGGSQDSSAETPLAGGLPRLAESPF
T1 sequence (P43220 24-463): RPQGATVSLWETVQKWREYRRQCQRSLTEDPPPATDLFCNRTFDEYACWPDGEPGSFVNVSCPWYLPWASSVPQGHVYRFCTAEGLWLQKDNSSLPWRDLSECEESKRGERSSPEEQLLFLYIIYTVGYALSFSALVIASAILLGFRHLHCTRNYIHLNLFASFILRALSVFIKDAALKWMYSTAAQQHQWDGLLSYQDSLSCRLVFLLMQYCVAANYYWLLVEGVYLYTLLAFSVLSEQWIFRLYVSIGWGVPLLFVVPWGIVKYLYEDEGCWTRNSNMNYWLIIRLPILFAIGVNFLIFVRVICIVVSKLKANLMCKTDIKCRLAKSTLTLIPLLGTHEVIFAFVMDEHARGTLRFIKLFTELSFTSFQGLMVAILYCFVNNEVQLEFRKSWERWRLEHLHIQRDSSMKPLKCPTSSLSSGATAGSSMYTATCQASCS

Structure (SMILES)	EC50 [1, 4] [nM]	EC50 [2] [nM]	EC50 [3, 5] [nM]	EC50 ([2]; Table 2b (most comprehensive data), average EC50, cAMP, HEK293 cells expressing human GCG R, read-out: GCG R (EC50 in nM)) [nM]	EC50 [3, 6] [nM]	EC50 ([1]; Table 2) [nM]	EC50 [3, 7] [nM]	EC50 [2, 8] [nM]	EC50 [3, 9] [nM]
CCCCCCCCCCCCCCCCCC(=O)N[C@@H](CCC(=O)NCCOCCOCC(=O)NCCOCCOCC(=O)NCCCC[C@H](NC(=O)[C@H](CCCCN)NC(=O)[C@H](CCC(=O)O)NC(=O)[C@H](CC(C)C)NC(=O)[C@H](C)NC(=O)[C@@H](NC(=O)[C@H](CO)NC(=O)[C@H](Cc1ccc(O)cc1)NC(=O)[C@H](CC(=O)O)NC(=O)[C@H](CO)NC(=O)[C@@H](NC(=O)[C@H](Cc1ccccc1)NC(=O)[C@@H](NC(=O)CNC(=O)[C@H](CCC(N)=O)NC(=O)C(C)(C)NC(=O)[C@@H](N)Cc1ccc(O)cc1)[C@@H](C)O)[C@@H](C)O)[C@@H](C)CC)C(=O)N[C@@H](C)C(=O)N[C@@H](CCC(N)=O)C(=O)N[C@@H](CCCNC(=N)N)C(=O)N[C@@H](C)C(=O)N[C@@H](Cc1ccccc1)C(=O)N[C@H](C(=O)N[C@@H](CCC(=O)O)C(=O)N[C@@H](Cc1c[nH]c2ccccc12)C(=O)N[C@@H](CC(C)C)C(=O)N[C@@H](CC(C)C)C(=O)N[C@@H](C)C(=O)N[C@@H](CCC(N)=O)C(=O)N[C@@H](CCCCN)C(N)=O)C(C)C)C(=O)O [Compound 46] (H-Y[Aib]QGTFTSDYSIALEKK([AEEA-AEEA-γGlu-Stearoyl])AQRAFVEWLLAQK-NH2)	0.16	0.13	0.011						
CCCCCCCCCCCCCCCCCC(=O)N[C@@H](CCC(=O)NCCOCCOCC(=O)NCCOCCOCC(=O)NCCCC[C@H](NC(=O)[C@H](CCCCN)NC(=O)[C@H](CC(=O)O)NC(=O)[C@H](CC(C)C)NC(=O)[C@H](Cc1ccc(O)cc1)NC(=O)[C@@H](NC(=O)[C@H](CO)NC(=O)[C@H](Cc1ccc(O)cc1)NC(=O)[C@H](CC(=O)O)NC(=O)[C@H](CO)NC(=O)[C@@H](NC(=O)[C@H](Cc1ccccc1)NC(=O)[C@@H](NC(=O)CNC(=O)[C@H](CCC(N)=O)NC(=O)C(C)(C)NC(=O)[C@@H](N)Cc1ccc(O)cc1)[C@@H](C)O)[C@@H](C)O)[C@@H](C)CC)C(=O)N[C@@H](C)C(=O)N[C@@H](CCC(N)=O)C(=O)N[C@@H](CCCNC(=N)N)C(=O)N[C@@H](C)C(=O)N[C@@H](Cc1ccccc1)C(=O)N[C@H](C(=O)N[C@@H](CCC(=O)O)C(=O)N[C@@H](Cc1c[nH]c2ccccc12)C(=O)N[C@@H](CC(C)C)C(=O)N[C@@H](CC(C)C)C(=O)N[C@@H](C)C(=O)N[C@@H](CCC(N)=O)C(=O)NCC(=O)N1CCC[C@H]1C(=O)N[C@@H](CO)C(=O)N[C@@H](CO)C(=O)NCC(=O)N[C@@H](C)C(=O)N1CCC[C@H]1C(=O)N1CCC[C@H]1C(=O)N1CCC[C@H]1C(=O)N[C@@H](CO)C(N)=O)C(C)C)C(=O)O [Compound 35] (H-Y[Aib]QGTFTSDYSIYLDKK([AEEA-AEEA-γGlu-Stearoyl])AQRAFVEWLLAQGPSSGAPPPS-NH2)	1.85			0.011	0.012				
CC(C)C[C@H](NC(=O)[C@H](CC(C)C)NC(=O)[C@H](Cc1c[nH]c2ccccc12)NC(=O)[C@H](CCC(=O)O)NC(=O)[C@@H](NC(=O)[C@H](Cc1ccccc1)NC(=O)[C@H](CC(=O)O)NC(=O)[C@H](Cc1c[nH]cn1)NC(=O)[C@H](C)NC(=O)[C@H](C)NC(=O)[C@H](CCCCN)NC(=O)[C@H](CO)NC(=O)[C@H](CCC(=O)O)NC(=O)[C@H](CC(C)C)NC(=O)[C@H](Cc1ccc(O)cc1)NC(=O)[C@H](CCCCN)NC(=O)[C@H](CO)NC(=O)[C@H](Cc1ccc(O)cc1)NC(=O)[C@H](CC(=O)O)NC(=O)[C@H](CO)NC(=O)[C@@H](NC(=O)[C@H](Cc1ccccc1)NC(=O)[C@@H](NC(=O)CNC(=O)[C@H](CCC(N)=O)NC(=O)C(C)(C)NC(=O)[C@@H](N)Cc1ccc(O)cc1)[C@@H](C)O)[C@@H](C)O)C(C)C)C(=O)N[C@@H](CO)C(=O)N[C@@H](C)C(N)=O [Compound 8] (HELM PEPTIDE1{Y.[Aib].Q.G.T.F.T.S.D.Y.S.K.Y.L.E.S.K.A.A.H.D.F.V.E.W.L.L.S.A.[am]}$$$$V2.0)		0.042	0.015			0.015	0.2		
CCCCCCCCCCCCCCCC(=O)N[C@@H](CCC(=O)NCCCC[C@H](NC(=O)[C@H](CO)NC(=O)[C@H](Cc1ccc(O)cc1)NC(=O)[C@H](CC(=O)O)NC(=O)[C@H](CO)NC(=O)[C@@H](NC(=O)[C@H](Cc1ccccc1)NC(=O)[C@@H](NC(=O)CNC(=O)[C@H](CCC(N)=O)NC(=O)C(C)(C)NC(=O)[C@@H](N)Cc1ccc(O)cc1)[C@@H](C)O)[C@@H](C)O)C(=O)N[C@@H](Cc1ccc(O)cc1)C(=O)N[C@@H](CC(C)C)C(=O)N[C@@H](CCC(=O)O)C(=O)N[C@@H](CCCCN)C(=O)N[C@@H](CCCCN)C(=O)N[C@@H](C)C(=O)N[C@@H](C)C(=O)N[C@@H](CCCCN)C(=O)N[C@@H](CCC(=O)O)C(=O)N[C@@H](Cc1ccccc1)C(=O)N[C@H](C(=O)N[C@@H](CCC(=O)O)C(=O)N[C@@H](Cc1c[nH]c2ccccc12)C(=O)N[C@@H](CC(C)C)C(=O)N[C@@H](CC(C)C)C(=O)N[C@@H](CO)C(=O)N[C@@H](C)C(N)=O)C(C)C)C(=O)O [Compound 25] (HELM PEPTIDE1{Y.[Aib].Q.G.T.F.T.S.D.Y.S.K.Y.L.E.K.K.A.A.K.E.F.V.E.W.L.L.S.A.[am]}|PEPTIDE2{[CCCCCCCCCCCCCCCC(=O)[*:2]].[gGlu]}$PEPTIDE1,PEPTIDE2,12:R3-2:R2$$$V2.0)	0.28				0.25	0.28		0.3	0.25
CC[C@H](C)[C@H](NC(=O)[C@H](CO)NC(=O)[C@H](Cc1ccc(O)cc1)NC(=O)[C@H](CC(=O)O)NC(=O)[C@H](CO)NC(=O)[C@@H](NC(=O)[C@H](Cc1ccccc1)NC(=O)[C@@H](NC(=O)CNC(=O)[C@H](CCC(N)=O)NC(=O)C(C)(C)NC(=O)[C@@H](N)Cc1ccc(O)cc1)[C@@H](C)O)[C@@H](C)O)C(=O)N[C@@H](Cc1ccc(O)cc1)C(=O)N[C@@H](CC(C)C)C(=O)N[C@@H](CCC(=O)O)C(=O)N[C@@H](CO)C(=O)N[C@@H](CCCCN)C(=O)N[C@@H](C)C(=O)N[C@@H](C)C(=O)N[C@@H](Cc1c[nH]cn1)C(=O)N[C@@H](CC(=O)O)C(=O)N[C@@H](Cc1ccccc1)C(=O)N[C@H](C(=O)N[C@@H](CCC(=O)O)C(=O)N[C@@H](Cc1c[nH]c2ccccc12)C(=O)N[C@@H](CC(C)C)C(=O)N[C@@H](CC(C)C)C(=O)N[C@@H](CO)C(=O)N[C@@H](C)C(N)=O)C(C)C [Compound 18] (HELM PEPTIDE1{Y.[Aib].Q.G.T.F.T.S.D.Y.S.I.Y.L.E.S.K.A.A.H.D.F.V.E.W.L.L.S.A.[am]}$$$$V2.0)	0.15	0.15				0.021	0.07		
CC[C@H](C)[C@H](NC(=O)[C@H](CO)NC(=O)[C@H](Cc1ccc(O)cc1)NC(=O)[C@H](CC(=O)O)NC(=O)[C@H](CO)NC(=O)[C@@H](NC(=O)[C@H](Cc1ccccc1)NC(=O)[C@@H](NC(=O)CNC(=O)[C@H](CCC(N)=O)NC(=O)C(C)(C)NC(=O)[C@@H](N)Cc1ccc(O)cc1)[C@@H](C)O)[C@@H](C)O)C(=O)N[C@@H](Cc1ccc(O)cc1)C(=O)N[C@@H](CC(C)C)C(=O)N[C@@H](CC(=O)O)C(=O)N[C@@H](CO)C(=O)N[C@@H](CCCCN)C(=O)N[C@@H](C)C(=O)N[C@@H](C)C(=O)N[C@@H](Cc1c[nH]cn1)C(=O)N[C@@H](CC(=O)O)C(=O)N[C@@H](Cc1ccccc1)C(=O)N[C@H](C(=O)N[C@@H](CCC(=O)O)C(=O)N[C@@H](Cc1c[nH]c2ccccc12)C(=O)N[C@@H](CC(C)C)C(=O)N[C@@H](CC(C)C)C(=O)N[C@@H](CO)C(=O)N[C@@H](C)C(=O)NCC(=O)N1CCC[C@H]1C(=O)N[C@@H](CO)C(=O)N[C@@H](CO)C(=O)NCC(=O)N[C@@H](C)C(=O)N1CCC[C@H]1C(=O)N1CCC[C@H]1C(=O)N1CCC[C@H]1C(=O)N[C@@H](CO)C(N)=O)C(C)C [Compound 13] (HELM PEPTIDE1{Y.[Aib].Q.G.T.F.T.S.D.Y.S.I.Y.L.D.S.K.A.A.H.D.F.V.E.W.L.L.S.A.G.P.S.S.G.A.P.P.P.S.[am]}$$$$V2.0)					0.01	0.0099		0.24	0.083
